Results taken from the NIST ThermoML archive (doi:10.1016/j.jct.2019.02.025).
± gives the expanded uncertainty stated by the source.

Legend:
[1] = refractive index (Na D-line) (dimensionless); conditions: 101.33 kPa, Liquid, Standard Abbe refractometry
[2] = for mass density / kinematic viscosity: 101.33 kPa, Liquid; for mass density: Vibrating tube method; for surface tension liquid-gas / kinematic viscosity: Surface laser light scattering (SLLS)

Q: What does the source list for `CCCCCCCCCCCCCC(=O)OC` [methyl tetradecanoate]?
A: refractive index ([1]; 293.15 K): 1.43704 ± 0.00049; refractive index ([1]; 298.15 K): 1.43499 ± 0.00049; refractive index ([1]; 303.15 K): 1.43296 ± 0.00049; refractive index ([1]; 308.15 K): 1.43093 ± 0.00049; refractive index ([1]; 313.15 K): 1.4289 ± 0.00049; refractive index ([1]; 318.15 K): 1.42681 ± 0.00049; refractive index ([1]; 323.15 K): 1.42472 ± 0.00049; refractive index ([1]; 328.15 K): 1.42254 ± 0.00049; refractive index ([1]; 333.15 K): 1.4202 ± 0.00049; refractive index ([1]; 338.15 K): 1.41783 ± 0.00049; refractive index ([1]; 343.15 K): 1.4163 ± 0.00049; refractive index ([1]; 348.15 K): 1.41474 ± 0.00049; refractive index ([1]; 353.15 K): 1.41282 ± 0.00049; refractive index ([1]; 358.15 K): 1.41083 ± 0.00049; mass density ([2]; 293.15 K): 867.06 ± 1.7 kg/m3; mass density ([2]; 303.15 K): 859.28 ± 1.7 kg/m3; mass density ([2]; 313.15 K): 851.61 ± 1.7 kg/m3; mass density ([2]; 323.15 K): 843.97 ± 1.7 kg/m3; surface tension liquid-gas ([2]; 323.17 K): 23.37 ± 0.83 mN/m; kinematic viscosity ([2]; 323.17 K): 2.41e-06 ± 7.6e-08 m2/s; mass density ([2]; 333.15 K): 836.37 ± 1.7 kg/m3; mass density ([2]; 343.15 K): 828.8 ± 1.7 kg/m3; surface tension liquid-gas ([2]; 348.16 K): 21.83 ± 0.42 mN/m; kinematic viscosity ([2]; 348.16 K): 1.76e-06 ± 1.1e-07 m2/s; mass density ([2]; 353.15 K): 821.26 ± 1.6 kg/m3; mass density ([2]; 363.15 K): 813.71 ± 1.6 kg/m3; mass density ([2]; 373.15 K): 806.17 ± 1.6 kg/m3; surface tension liquid-gas ([2]; 373.18 K): 20.78 ± 0.56 mN/m; kinematic viscosity ([2]; 373.18 K): 1.38e-06 ± 7.4e-08 m2/s; mass density ([2]; 383.15 K): 798.64 ± 1.6 kg/m3; mass density ([2]; 393.15 K): 791.09 ± 1.6 kg/m3; surface tension liquid-gas ([2]; 398.2 K): 19.71 ± 0.09 mN/m; kinematic viscosity ([2]; 398.2 K): 1.08e-06 ± 3.3e-08 m2/s; mass density ([2]; 403.15 K): 783.52 ± 1.6 kg/m3; mass density ([2]; 413.15 K): 775.91 ± 1.6 kg/m3; mass density ([2]; 423.15 K): 768.24 ± 1.5 kg/m3; surface tension liquid-gas ([2]; 423.17 K): 18.31 ± 0.15 mN/m; kinematic viscosity ([2]; 423.17 K): 8.63e-07 ± 2.8e-08 m2/s; mass density ([2]; 433.15 K): 760.61 ± 1.5 kg/m3; mass density ([2]; 443.15 K): 752.95 ± 1.5 kg/m3; surface tension liquid-gas ([2]; 448.17 K): 16.82 ± 0.09 mN/m; kinematic viscosity ([2]; 448.17 K): 7e-07 ± 2.5e-08 m2/s; mass density ([2]; 453.15 K): 745.22 ± 1.5 kg/m3

Q: Which refractive index ([1]; 278.15 K) does the source give for `CCCCCC(=O)OCC` [ethyl hexanoate] here?
A: Its refractive index is 1.41438 ± 0.00053.

Q: And the refractive index ([1]; 283.15 K)?
A: Its refractive index is 1.4121 ± 0.00053.

Q: And the refractive index ([1]; 288.15 K)?
A: The refractive index was 1.40982 ± 0.00053.

Q: And the refractive index ([1]; 293.15 K)?
A: The refractive index was 1.40753 ± 0.00053.

Q: What about the refractive index ([1]; 298.15 K) of the same compound?
A: Its refractive index is 1.40525 ± 0.00053.

Q: What about the refractive index ([1]; 303.15 K) of the same compound?
A: Its refractive index is 1.40295 ± 0.00053.

Q: And the refractive index ([1]; 308.15 K)?
A: The refractive index was 1.40063 ± 0.00053.

Q: What about the refractive index ([1]; 313.15 K) of the same compound?
A: Its refractive index is 1.39829 ± 0.00053.

Q: What about the refractive index ([1]; 318.15 K) of the same compound?
A: The refractive index was 1.39594 ± 0.00053.

Q: And the refractive index ([1]; 323.15 K)?
A: Its refractive index is 1.3936 ± 0.00053.

Q: And the refractive index ([1]; 328.15 K)?
A: Its refractive index is 1.39128 ± 0.00053.

Q: What about the refractive index ([1]; 333.15 K) of the same compound?
A: The refractive index was 1.38897 ± 0.00053.

Q: What about the refractive index ([1]; 338.15 K) of the same compound?
A: Its refractive index is 1.38667 ± 0.00053.

Q: And the refractive index ([1]; 343.15 K)?
A: The refractive index was 1.38438 ± 0.00053.

Q: And the refractive index ([1]; 348.15 K)?
A: The refractive index was 1.3821 ± 0.00053.

Q: What about the refractive index ([1]; 353.15 K) of the same compound?
A: The refractive index was 1.37983 ± 0.00053.

Q: What about the refractive index ([1]; 358.15 K) of the same compound?
A: The refractive index was 1.37754 ± 0.00053.

Q: What about the mass density ([2]; 293.15 K) of the same compound?
A: Its mass density is 871.07 ± 1.8 kg/m3.

Q: And the surface tension liquid-gas ([2]; 298.26 K)?
A: The surface tension liquid-gas was 24.65 ± 0.38 mN/m.

Q: What about the kinematic viscosity ([2]; 298.26 K) of the same compound?
A: Its kinematic viscosity is 1.13e-06 ± 4.5e-08 m2/s.

Q: And the mass density ([2]; 303.15 K)?
A: The mass density was 861.61 ± 1.7 kg/m3.

Q: What about the mass density ([2]; 313.15 K) of the same compound?
A: The mass density was 851.2 ± 1.7 kg/m3.

Q: What about the surface tension liquid-gas ([2]; 323.06 K) of the same compound?
A: The surface tension liquid-gas was 22.27 ± 0.4 mN/m.

Q: And the kinematic viscosity ([2]; 323.06 K)?
A: Its kinematic viscosity is 8.14e-07 ± 3.5e-08 m2/s.

Q: And the mass density ([2]; 323.15 K)?
A: Its mass density is 842.71 ± 1.7 kg/m3.

Q: And the mass density ([2]; 333.15 K)?
A: Its mass density is 833.25 ± 1.7 kg/m3.

Q: And the mass density ([2]; 343.15 K)?
A: Its mass density is 823.72 ± 1.7 kg/m3.

Q: What about the surface tension liquid-gas ([2]; 348.04 K) of the same compound?
A: The surface tension liquid-gas was 20.08 ± 0.34 mN/m.

Q: And the kinematic viscosity ([2]; 348.04 K)?
A: Its kinematic viscosity is 6.25e-07 ± 2.4e-08 m2/s.

Q: What about the mass density ([2]; 353.15 K) of the same compound?
A: The mass density was 814.13 ± 1.6 kg/m3.

Q: What about the mass density ([2]; 363.15 K) of the same compound?
A: Its mass density is 804.45 ± 1.6 kg/m3.

Q: What about the surface tension liquid-gas ([2]; 372.96 K) of the same compound?
A: Its surface tension liquid-gas is 17.81 ± 0.24 mN/m.

Q: And the kinematic viscosity ([2]; 372.96 K)?
A: Its kinematic viscosity is 5e-07 ± 1.9e-08 m2/s.

Q: What about the mass density ([2]; 373.15 K) of the same compound?
A: Its mass density is 794.69 ± 1.6 kg/m3.

Q: And the mass density ([2]; 383.15 K)?
A: Its mass density is 784.83 ± 1.6 kg/m3.

Q: What about the mass density ([2]; 393.15 K) of the same compound?
A: The mass density was 774.87 ± 1.6 kg/m3.

Q: And the surface tension liquid-gas ([2]; 397.73 K)?
A: Its surface tension liquid-gas is 15.68 ± 0.11 mN/m.

Q: What about the kinematic viscosity ([2]; 397.73 K) of the same compound?
A: The kinematic viscosity was 4.11e-07 ± 1.7e-08 m2/s.

Q: And the mass density ([2]; 403.15 K)?
A: The mass density was 764.77 ± 1.5 kg/m3.

Q: And the mass density ([2]; 413.15 K)?
A: The mass density was 754.53 ± 1.5 kg/m3.

Q: And the surface tension liquid-gas ([2]; 422.94 K)?
A: Its surface tension liquid-gas is 13.51 ± 0.15 mN/m.

Q: And the kinematic viscosity ([2]; 422.94 K)?
A: The kinematic viscosity was 3.46e-07 ± 1.6e-08 m2/s.

Q: What about the mass density ([2]; 423.15 K) of the same compound?
A: Its mass density is 744.07 ± 1.5 kg/m3.

Q: What about the surface tension liquid-gas ([2]; 447.88 K) of the same compound?
A: The surface tension liquid-gas was 11.43 ± 0.25 mN/m.

Q: And the kinematic viscosity ([2]; 447.88 K)?
A: Its kinematic viscosity is 3.03e-07 ± 1.5e-08 m2/s.

Q: What does the source list for `CCCCCCC(=O)OCC` [ethyl heptanoate]?
A: refractive index ([1]; 278.15 K): 1.42006 ± 0.00057; refractive index ([1]; 283.15 K): 1.41784 ± 0.00057; refractive index ([1]; 288.15 K): 1.41562 ± 0.00057; refractive index ([1]; 293.15 K): 1.41341 ± 0.00057; refractive index ([1]; 298.15 K): 1.41119 ± 0.00057; refractive index ([1]; 303.15 K): 1.40896 ± 0.00057; refractive index ([1]; 308.15 K): 1.40673 ± 0.00057; refractive index ([1]; 313.15 K): 1.40445 ± 0.00057; refractive index ([1]; 318.15 K): 1.40216 ± 0.00057; refractive index ([1]; 323.15 K): 1.39988 ± 0.00057; refractive index ([1]; 328.15 K): 1.39761 ± 0.00057; refractive index ([1]; 333.15 K): 1.39535 ± 0.00057; refractive index ([1]; 338.15 K): 1.39311 ± 0.00057; refractive index ([1]; 343.15 K): 1.39088 ± 0.00057; refractive index ([1]; 348.15 K): 1.38866 ± 0.00057; refractive index ([1]; 353.15 K): 1.38645 ± 0.00057; refractive index ([1]; 358.15 K): 1.38421 ± 0.00057; mass density ([2]; 293.15 K): 869.42 ± 1.8 kg/m3; surface tension liquid-gas ([2]; 298.25 K): 24.88 ± 0.34 mN/m; kinematic viscosity ([2]; 298.25 K): 1.33e-06 ± 4.4e-08 m2/s; mass density ([2]; 303.15 K): 860.36 ± 1.8 kg/m3; mass density ([2]; 313.15 K): 851.32 ± 1.7 kg/m3; surface tension liquid-gas ([2]; 323.03 K): 23.07 ± 0.3 mN/m; kinematic viscosity ([2]; 323.03 K): 9.55e-07 ± 3.1e-08 m2/s; mass density ([2]; 323.15 K): 842.26 ± 1.7 kg/m3; mass density ([2]; 333.15 K): 833.07 ± 1.7 kg/m3; mass density ([2]; 343.15 K): 824.1 ± 1.7 kg/m3; surface tension liquid-gas ([2]; 347.8 K): 20.71 ± 0.23 mN/m; kinematic viscosity ([2]; 347.8 K): 7.3e-07 ± 2.5e-08 m2/s; mass density ([2]; 353.15 K): 814.99 ± 1.7 kg/m3; mass density ([2]; 363.15 K): 805.81 ± 1.6 kg/m3; surface tension liquid-gas ([2]; 372.91 K): 18.61 ± 0.23 mN/m; kinematic viscosity ([2]; 372.91 K): 5.73e-07 ± 2.2e-08 m2/s; mass density ([2]; 373.15 K): 796.55 ± 1.6 kg/m3; mass density ([2]; 383.15 K): 787.24 ± 1.6 kg/m3; mass density ([2]; 393.15 K): 777.81 ± 1.6 kg/m3; surface tension liquid-gas ([2]; 397.51 K): 16.27 ± 0.19 mN/m; kinematic viscosity ([2]; 397.51 K): 4.7e-07 ± 1.9e-08 m2/s; mass density ([2]; 403.15 K): 768.3 ± 1.6 kg/m3; mass density ([2]; 413.15 K): 758.65 ± 1.6 kg/m3; surface tension liquid-gas ([2]; 421.88 K): 14.43 ± 0.14 mN/m; kinematic viscosity ([2]; 421.88 K): 3.95e-07 ± 1.7e-08 m2/s; mass density ([2]; 423.15 K): 748.89 ± 1.5 kg/m3; mass density ([2]; 433.15 K): 738.95 ± 1.5 kg/m3; mass density ([2]; 443.15 K): 728.84 ± 1.5 kg/m3; surface tension liquid-gas ([2]; 448 K): 12.31 ± 0.14 mN/m; kinematic viscosity ([2]; 448 K): 3.39e-07 ± 1.6e-08 m2/s
